According to patent US20240199562A1, “UREA DERIVATIVES FOR TREATING UVEAL MELANOMA” (CENTRE NATIONAL DE LA RECHERCHE SCIENTIFIQUE, priority 2021, published 2024):
Where two headings read alike, the source gives them in different places.

Tests used:
Type in all cases: cell-based
MM66 cells = assay: Cell viability (XTT) on uveal melanoma cells MM66; conditions: for metabolism of UM cells (XTT): MM66 cells, increasing doses, FIG. 2A
Procedure: (§1) FIG. 1: In vitro efficacy of MCK140 and MCK151 on uveal melanoma cells. Cells were treated for 48 hours with increasing doses of MCK140 or MCK151 and the cell viability was then evaluated by XTT.
(§2) FIG. 2A: In vitro efficacy of MCK151, Ladarixin, and AZD-5069 in uveal melanoma cells. MP41 and MM66 cells were treated for 48 hours with increasing doses of MCK151 or Ladarixin or AZD-5069 and the cell metabolism was then evaluated by XTT.
(§3) Cell culture: Uveal melanoma cells were derived from the primary tumor (eye tumor, MP38 and MP46) and one is from liver metastasis (MM66) were a kind gift from Dr. Roman Roman (Curie Institute). UM cells were cultured in RPMI medium supplemented with 20% FBS.
(§4) Cell viability (XTT): Cells (5×10^3 cells/100 μl) were incubated in a 96-well plate with different effectors for the times indicated in the figure legends. 50 μl of sodium 3′-[1-phenylaminocarbonyl)-3,4-tetrazolium]-bis(4-methoxy-6-nitro) benzene sulfonic acid hydrate (XTT) reagent was added to each well. The assay is based on the cleavage of the yellow tetrazolium salt XTT to form an orange formazan dye by metabolically active cells. Absorbance of the formazan product, reflecting cell viability, was measured at 490 nm. Each assay was performed in quadruplicate.

MP41 cells [1] = assay: Cell viability (XTT) on uveal melanoma cells MP41; conditions: for IC50: MP41 cells (primary tumor); for metabolism of UM cells (XTT): MP41 cells, increasing doses, FIG. 2A
Procedure: as §1, §2, §3, §4

MP38 cells = assay: Cell viability (XTT) on uveal melanoma cells MP38
Procedure: as §1, §3, §4

MP41 cells [2] = assay: ROS assay (CellROX Deep Red, cytometry); conditions: MCK151 1, 2.5, 5 μM, Ladarixin 10 μM, FIG. 2B
Procedure: FIG. 2B: Inhibition of ROS production by MCK151 and Ladarixin in uveal melanoma cells. MP41 cells were treated for 48 hours with increasing doses of MCK151 (1 μM, 2.5 μM, and 5 μM) or Ladarixin (10 μM) and ROS quantity was evaluated by cytometry.
ROS assay: Deep Red Reagent was used to assess the level of intracellular ROS. The CellROX/Deep Red reagent (which is initially non-fluorescent) freely enters the cells, where it is cleaved by endogenous esterases. After oxidization by ROS, the reagent becomes highly fluorescent with an absorption/emission maximal of 644/665 nm. Cells were treated 24h and incubated at 37° C. with CellROX Deep Red reagent (0.01 umol/L) for 2 h. The cells were then washed with PBS and analyzed by cytometry.

[3] = MM66 cells (liver metastases), 48 h, Table 3, read-out: IC50 (μM) at 48 h MM66
[4] = 48 h, Table 3, read-out: IC50 (μM) at 48 h MP41

## Cc1cccc(NC(=O)Nc2nc3ccc([N+](=O)[O-])cc3o2)c1 [MCK153, 1-(6-nitrobenzo[d]oxazol-2-yl)-3-(m-tolyl)urea]
MM66 cells; [3]
  IC50: 12 µM
MP41 cells [1]; [4]
  IC50: 30 µM

## O=C(Nc1cccc(Cl)c1)Nc1nc2ccc([N+](=O)[O-])cc2s1 [MCK140, 1-(3-chlorophenyl)-3-(6-nitrobenzo[d]thiazol-2-yl)urea]
MM66 cells; [3]
  IC50: 1.25 µM
MM66 cells; MM66 cells (liver metastasis), 48 hours, XTT, Table 2, read-out: IC50 (μM) UM MM66
  IC50: 1.25 µM
MM66 cells; MM66 cells from liver metastases, in words
  viability of cells: decreased the viability
MP38 cells; MP38 cells (primary tumor), 48 hours, XTT
  IC50: 1 µM
MP38 cells; MP38 cells from the primary tumor, in words
  viability of cells: decreased the viability
MP41 cells [1]; [4]
  IC50: 1 µM
MP41 cells [1]; 48 hours, XTT, Table 2, read-out: IC50 (μM) UM MP41
  IC50: 1 µM
MP41 cells [1]; MP41 cells from the primary tumor, in words
  viability of cells: decreased the viability

## C[C@@H](Oc1cc(NS(=O)(=O)N2CCC2)nc(SCc2cccc(F)c2F)n1)[C@@H](O)CO [AZD-5069, reference compound]
MM66 cells; 48 hours
  metabolism of UM cells (XTT): no effect
MP41 cells [1]; 48 hours
  metabolism of UM cells (XTT): no effect

## O=C(Nc1ccccc1)Nc1nc2ccc([N+](=O)[O-])cc2[nH]1 [MCK157, 1-(6-nitro-1H-benzo[d]imidazol-2-yl)-3-phenylurea]
MM66 cells; [3]
  IC50: 10 µM
MP41 cells [1]; [4]
  IC50: 8 µM

## O=C(Nc1cccc(Cl)c1)Nc1nc2ccc(-c3ccccn3)cc2s1 [MCK172, 1-(3-chlorophenyl)-3-(6-(pyridin-2-yl)benzo[d]thiazol-2-yl)urea]
MM66 cells; [3]
  IC50: 25 µM
MP41 cells [1]; [4]
  IC50: 30 µM

## C[C@@H](C(=O)NS(C)(=O)=O)c1ccc(OS(=O)(=O)C(F)(F)F)cc1 [Ladarixin, reference compound]
MM66 cells; 48 hours
  metabolism of UM cells (XTT): no effect
MP41 cells [2]
  ROS production by UM cells: no effect
MP41 cells [1]; 48 hours
  metabolism of UM cells (XTT): no effect

## O=C(Nc1cccc(Cl)c1)Nc1nc2ccc(-c3cccc4ccccc34)cc2s1 [MCK164, 1-(3-chlorophenyl)-3-(6-(naphthalen-1-yl)benzo[d]thiazol-2-yl)urea]
MM66 cells; [3]
  IC50: 5 µM
MP41 cells [1]; [4]
  IC50: 10 µM
